Data set [1] relates to SKBR-3 human breast cancer cell line. Nature of the data set: CellTiter-Glo cell proliferation assay, dose matrix, SKBR-3. To be noted: SKBR-3, 72 hrs; for Amax, the maximum fraction of inhibition: fraction growth inhibition compare to DMSO control, everolimus 1 nM-27 nM, Compound I 4 nM-3 μM. It counts as cell-based. In general terms: In ATP-based viability assays light output follows the ATP content of the culture.
Protocol: The human breast cancer cell line SKBR-3 is purchased from American Type Cell Collection. The SKBR-3 human breast cancer cell line is HER2 amplified.
Single agent dose responding curves, IC50, IC90, and the Synergy are all analyzed using Chalice software (CombinatoRx, Cambridge Mass.). Synergy is calculated by comparing a combination's response to those of its single agents, against the drug-with-itself dose-additive reference model. Deviations from dose additivity can be assessed visually on an Isobologram or numerically with a Combination Index. Excess inhibition compare to additivity can also be plotted as a full dose-matrix chart to capture where the synergies occur. To quantify the overall strength of combination effects, a volume score VHSA=ΣX,Y, InfX InfY (Idata−IHSA) is also calculated between the data and the highest-single-agent surface, normalized for single agent dilution factors fX,fY.
The cells are plated at 3000 cells per well in 384 well plates in triplicates, and treated with compound for 72 hrs before the measurement (FIG. 13).

Data set [2] has as its system ZR-75-1 human breast cancer cell line. The experiment in a line: CellTiter-Glo cell proliferation assay, dose matrix, ZR-75-1. It counts as cell-based. To be noted: for Amax (maximum fraction of inhibition): ZR-75-1, 72 hrs, fraction growth inhibition compare to DMSO control, everolimus 1 nM-27 nM, Compound I 4 nM-3 μM.
Data set [3] concerns DU145 human prostate carcinoma. The experiment in a line: Tumor growth inhibition, DU145 human prostate carcinoma nude mouse xenograft model. To be noted: for Mean volume Change: Day 1 to Day 21; for T/C: Day 21. A general note: In xenograft studies the graft and the host belong to different species.
Data set [4] deals with BT-474 human breast cancer cell line. The experiment in a line: CellTiter-Glo cell proliferation assay, dose matrix, BT-474. It counts as cell-based. To be noted: BT-474, 72 hrs; for Amax (maximum fraction of inhibition): fraction growth inhibition compare to DMSO control, everolimus 1 nM-27 nM, Compound I 4 nM-3 μM. The protocol: (§1) Cell viability is determined by measuring cellular ATP content using the CellTiter-Glo® Luminescent Cell Viability Assay (Promega #G7573) according to manufacturer's protocol.
(§2) Single agent dose responding curves, IC50, IC90, and the Synergy are all analyzed using Chalice software (CombinatoRx, Cambridge Mass.). Synergy is calculated by comparing a combination's response to those of its single agents, against the drug-with-itself dose-additive reference model. Deviations from dose additivity can be assessed visually on an Isobologram or numerically with a Combination Index. Excess inhibition compare to additivity can also be plotted as a full dose-matrix chart to capture where the synergies occur. To quantify the overall strength of combination effects, a volume score VHSA=ΣX,Y InfX InfY (Idata−IHSA) is also calculated between the data and the highest-single-agent surface, normalized for single agent dilution factors fX,fY.
The experiment setup is identical to the experiment procedure described above for the SKBR-3 model (FIG. 14).

Data set [5] concerns T47-D human breast cancer cell line. The experiment in a line: CellTiter-Glo cell proliferation assay, dose matrix, T47-D. The class given is cell-based. The conditions noted are these: 72 hrs; for Amax (maximum fraction of inhibition): fraction growth inhibition compare to DMSO control, everolimus 1 nM-27 nM, Compound I 4 nM-3 μM. The procedure: The human breast cancer cell line T47-D is purchased from American Type Cell Collection. The T47-D human breast cancer cell line includes PIK3CA mutation.
as §1, §2
The experiment setup is identical to the experiment procedure described above for the SKBR-3 model (FIG. 15).

Data set [6] can be described thus: Toxicity (body weight, deaths) in DU145 xenograft study. Also on record: key to Mean BW Nadir: — indicates no decrease in mean body weight is observed. It counts as in vivo, nude mice (nu/nu). To be noted: for Deaths (TR/NTR): ten mice. The procedure:
Paclitaxel is administered via bolus tail veil injections (i.v.) once daily on alternate days for five doses (qod×5). The dosing volume, 10 mL/kg ( )0.2 mL/20 g mouse), is scaled to the weight to each animal as determined on the day of dosing, except on weekends, when the Friday BWs are carried forward.
11 groups of nude mice (n=10 per group) are treated as follows: Group 1 mice receives Vehicle 1 and Vehicle 2, and served as controls for all analyses. […] Groups 5-7 receives monotherapies with 2.5, 5, and 10 mg/kg RAD001, respectively. […] Group 11 receives 25 mg/kg paclitaxel.
Animals are weighed on Days 1-5, and on each treatment day (except weekend days) until the end of the study. Acceptable toxicity for the maximum tolerated dose is defined as a group mean BW loss of less than 15% during the test, and not more than one treatment-related (TR) death among ten animals. Any animal with BW losses exceeding 20% for one measurement, is to be euthanized and classified as a TR death, unless it is the first death in the group. Non-treatment-related (NTR) deaths are to be categorized as NTRa (due to accident or error), NTRu (due to unknown causes), or NTRm (necropsy-confirmed tumor dissemination by invasion and/or metastasis).

[7] abbreviates: Group 5: RAD001 2.5 mg/kg p.o. qd×21.
Where [8] appears, read: Group 6: RAD001 5 mg/kg p.o. qd×21.
The mark [9] stands for this setting: Group 7: RAD001 10 mg/kg p.o. qd×21.
[10] abbreviates: Group 11: Paclitaxel 25 mg/kg i.v. qod×5.
[11] abbreviates: Group 2: Compound I 12.5 mg/kg p.o. qd×21.
[12] abbreviates: Group 3: Compound I 25 mg/kg p.o. qd×21.
Setting [13] is: Group 4: Compound I 50 mg/kg p.o. qd×21.
The mark [14] stands for this setting: single agent, read-out: IC50 (cell growth).

For `CO[C@H]1C[C@@H]2CC[C@@H](C)[C@@](O)(O2)C(=O)C(=O)N2CCCC[C@H]2C(=O)O[C@H]([C@H](C)C[C@@H]2CC[C@@H](OCCO)[C@H](OC)C2)CC(=O)[C@H](C)/C=C(\C)[C@@H](O)[C@@H](OC)C(=O)[C@H](C)C[C@H](C)/C=C/C=C/C=C/1C` [everolimus (RAD001), (1R,9S,12S,15R,16E,18R,19R, 21R,23S,24E,26E,28E,30S,32S,35R)-1,18-dihydroxy-12-{(1R)-2-[(1 S,3R,4R)-4-(2-hydroxyethoxy)-3-methoxycyclohexyl]-1-methylethyl}-19,30-dimethoxy-15,17,21,23,29,35-hexamethyl-11,36-dioxa-4-aza-tricyclo[30.3.1.04,9] hexatriaconta-16,24, 26,28-tetraene-2,3,10,14,20-pentaone], in data set [1], the “Amax, the maximum fraction of inhibition” value came to 0.32. For the same compound, the “IC50 (cell proliferation)” value in data set [1] (single agent, 1 nM-27 nM) was “never achieved an IC50”. Further, the IC50 in data set [2] (Homo sapiens, ZR-75-1, 72 h, read-out: IC50 (cell proliferation)) is around 15 nM. In addition, the “Amax (maximum fraction of inhibition)” value was 0.55 in data set [2], 0.36 in data set [4] and 0.37 in data set [5]. Further, the “Mean volume Change” value in data set [3] (setting [7]) is listed as 424 mm^3; in data set [3] (setting [8]), 269 mm^3; in data set [3] (setting [9]), 341 mm^3. The T/C result in data set [3] (setting [7]) was “(T/C = 54%)”; in data set [3] (setting [8]) it was “(T/C = 43%)”; in data set [3] (setting [9]), “(T/C = 43%)”. Further, the “Statistical Signif. vs. G1” value is listed as “ns (vs. G1)” in data set [3] (Group 5: RAD001 2.5 mg/kg, Kruskal-Wallis with Dunn's test); “* (vs. G1) (* = P < 0.05)” in data set [3] (Group 6: RAD001 5 mg/kg, Kruskal-Wallis with Dunn's test); “ns (vs. G1)” in data set [3] (Group 7: RAD001 10 mg/kg, Kruskal-Wallis with Dunn's test). The “IC50 (cell growth)” value in data set [4] (single agent) is “never achieves an IC50”; in data set [5] (single agent) it was “never achieved an IC50”. Besides, the “Mean BW Nadir” value in data set [6] (setting [7]), in data set [6] (setting [8]) and in data set [6] (setting [9]) was “—” throughout. In addition, the “Deaths (TR/NTR)” value in data set [6] (setting [7]), in data set [6] (setting [8]) and in data set [6] (setting [9]) was 0/0 each time.

For `CC(=O)O[C@H]1C(=O)[C@@]2(C)[C@H]([C@H](OC(=O)c3ccccc3)[C@]3(O)C[C@H](OC(=O)[C@H](O)[C@@H](NC(=O)c4ccccc4)c4ccccc4)C(C)=C1C3(C)C)[C@]1(OC(C)=O)CO[C@@H]1C[C@@H]2O` [Paclitaxel], in data set [3] (setting [10]), the “Mean volume Change” value amounted to 898 mm^3 and the T/C entry is on record as “(TIC = 115%)”. Further, in data set [3] (Group 11: Paclitaxel 25 mg/kg, Mann-Witney U test), the “Statistical Signif. vs. G1” value is listed as “ns (using”. Further, the “Mean BW Nadir” value in data set [6] (Group 11: Paclitaxel 25 mg/kg i.v. qod×5, % change from Day 1, nadir Day 12) is −1.9%. Further, the “Deaths (TR/NTR)” value in data set [6] (setting [10]) is given as 0/1.

On to `Cc1nc(NC(=O)N2CCC[C@H]2C(N)=O)sc1-c1ccnc(C(C)(C)C(F)(F)F)c1` [Compound I, (S)-Pyrrolidine-1,2-dicarboxylic acid 2-amide 1-({4-methyl-5-[2-(2,2,2-trifluoro-1,1-dimethyl-ethyl)-pyridin-4-yl]-thiazol-2-yl}-amide)], for which the “Amax, the maximum fraction of inhibition” value in data set [1] was 0.40. Moreover, the results for the “Amax (maximum fraction of inhibition)” value in data set [2], in data set [4] and in data set [5] were “around 0.16”, “around 0.53” and “around 0.67”, respectively. Moreover, the “Mean volume Change” value in data set [3] (setting [11]) came to 501 mm^3; in data set [3] (setting [12]) it was 129 mm^3; in data set [3] (setting [13]) it was 150 mm^3. The T/C entry in data set [3] (setting [11]) was “(T/C = 64%)”; in data set [3] (setting [13]), “(T/C = 19%)”. Also, the “Statistical Signif. vs. G1” value in data set [3] (Group 2: Compound I 12.5 mg/kg, Kruskal-Wallis with Dunn's test) is listed as “ns (vs. G1)”; in data set [3] (Group 3: Compound I 25 mg/kg, Kruskal-Wallis with Dunn's test), “*** (vs. G1) (*** = P < 0.001)”. The IC50 was around 3000 nM in data set [4] (setting [14]) and around 330 nM in data set [5] (setting [14]). In addition, the “Mean BW Nadir” value is “—” in data set [6] (setting [11]); “—” in data set [6] (setting [12]); −8.1% in data set [6] (Group 4: Compound I 50 mg/kg p.o. qd×21, % change from Day 1, nadir Day 8). Further, the results for the “Deaths (TR/NTR)” value in data set [6] (setting [11]), in data set [6] (setting [12]) and in data set [6] (setting [13]) were 0/0, 0/0 and 3/0, respectively.

These data come from patent US20180085362A1, “COMBINATION OF PHOSPHATIDYLINOSITOL-3-KINASE (PI3K) INHIBITOR AND A MTOR INHIBITOR” (Novartis AG, priority 2011, published 2018).
